# Measured values as given in publication PMC13079941 (Proceedings of the National Academy of Sciences of the …, 2026).
# Biological target: T1, CsRD21a (Citrus sinensis, UniProt A0ACB8KUT6)
# T1 construct: gene KPL71_016607; full-length, untagged, expressed transiently in Nicotiana benthamiana; secreted, prodomain removed in planta, active forms 25-35 kDa; concentrated apoplastic fluid, not purified
# Assay: competitive activity-based protein profiling, DCG-04 / streptavidin-HRP blot
# Format: biochemical
# Conditions: apoplastic fluid; 30 min preincubation; 50 mM sodium acetate pH 5.0, 5 mM DTT, room temperature
# T1 sequence (A0ACB8KUT6 139-468): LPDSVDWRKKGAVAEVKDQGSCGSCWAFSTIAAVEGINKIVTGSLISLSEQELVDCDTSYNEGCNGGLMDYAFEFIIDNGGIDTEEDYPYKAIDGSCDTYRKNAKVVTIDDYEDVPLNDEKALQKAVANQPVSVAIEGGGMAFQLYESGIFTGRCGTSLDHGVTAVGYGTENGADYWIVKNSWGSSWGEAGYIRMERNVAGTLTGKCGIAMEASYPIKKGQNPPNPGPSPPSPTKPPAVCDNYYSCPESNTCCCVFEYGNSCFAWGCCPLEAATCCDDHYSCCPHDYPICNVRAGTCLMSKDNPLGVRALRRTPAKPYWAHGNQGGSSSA
structure (smiles),measurement,value
CC(C)C[C@H](NC(=O)[C@H]1O[C@@H]1C(=O)O)C(=O)NCCCCNC(=N)N [E-64],"decrease of DCG-04 labelling, dosage-dependent",This signal decreased in the presence of the cysteine protease inhibitor E-64 in a dosage-dependent manner
